Experimental data reported in the supplement of paper PMC10307832.

Key:
Assay in all cases: relative viability (nuclei count vs DMSO), 5 days (fraction); higher = more cells survive
AZ3146 + Alpelisib = compound: CN1CCC(CC1)OC2=CC(=C(C=C2)NC3=NC=C4C(=N3)N(C(=O)N4C)C5CCCC5)OC [AZ3146] + Cc1nc(NC(=O)N2CCC[C@H]2C(N)=O)sc1-c1ccnc(C(C)(C)C(F)(F)F)c1 [Alpelisib] (partner 2 µM)
How it was run: (§1)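 For relative viability, nuclei counts in treated wells were divided by those in vehicle wells. Lung cancer cell lines had been pin-tool dosed in 1536-well plates the day after seeding and cultured for 5 days, then fixed and stained in one step (final 0.05% Triton X-100, 1% formaldehyde, 1 ug/ml Hoechst) and imaged at 4×. Doses were one drug alone or a fixed anchor-drug dose plus five library-drug doses (not always all listed) in √10 steps, and values are duplicate-plate medians.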

GSK-J4 + Linsitinib = compound: CCOC(=O)CCNc1cc(N2CCc3ccccc3CC2)nc(-c2ccccn2)n1 [GSK-J4] + C[C@]1(O)C[C@@H](c2nc(-c3ccc4ccc(-c5ccccc5)nc4c3)c3c(N)nccn32)C1 [Linsitinib] (partner 1 µM)
How it was run: as §1

GSK-J4 + Bortezomib = compound: CCOC(=O)CCNc1cc(N2CCc3ccccc3CC2)nc(-c2ccccn2)n1 [GSK-J4] + CC(C)C[C@H](NC(=O)[C@H](Cc1ccccc1)NC(=O)c1cnccn1)B(O)O [Bortezomib] (partner 0.002 µM)
How it was run: as §1

GSK-J4 + Navitoclax = compound: CCOC(=O)CCNc1cc(N2CCc3ccccc3CC2)nc(-c2ccccn2)n1 [GSK-J4] + CC1(C)CCC(c2ccc(Cl)cc2)=C(CN2CCN(c3ccc(C(=O)NS(=O)(=O)c4ccc(N[C@H](CCN5CCOCC5)CSc5ccccc5)c(S(=O)(=O)C(F)(F)F)c4)cc3)CC2)C1 [Navitoclax] (partner 0.5 µM)
How it was run: as §1

Cell Line: UMC-11
- relative viability (AZ3146 + Alpelisib; first compound 0.08 µM): 1.08
- relative viability (AZ3146 + Alpelisib; first compound 0.253 µM): 0.98
- relative viability (AZ3146 + Alpelisib; first compound 0.8 µM): 1.11
- relative viability (AZ3146 + Alpelisib; first compound 2.53 µM): 0.861
- relative viability (AZ3146 + Alpelisib; first compound 8 µM): 0.296
- relative viability (GSK-J4 + Linsitinib; first compound 0.5 µM): 0.97
- relative viability (GSK-J4 + Linsitinib; first compound 1.581 µM): 0.967
- relative viability (GSK-J4 + Linsitinib; first compound 5 µM): 1.02
- relative viability (GSK-J4 + Linsitinib; first compound 15.81 µM): 0.983
- relative viability (GSK-J4 + Linsitinib; first compound 50 µM): 0.572
- relative viability (GSK-J4 + Bortezomib; first compound 0.5 µM): 0.774
- relative viability (GSK-J4 + Bortezomib; first compound 1.581 µM): 0.263
- relative viability (GSK-J4 + Bortezomib; first compound 5 µM): 0.434
- relative viability (GSK-J4 + Bortezomib; first compound 15.81 µM): 0.759
- relative viability (GSK-J4 + Bortezomib; first compound 50 µM): 0.561
- relative viability (GSK-J4 + Navitoclax; first compound 0.5 µM): 0.332
- relative viability (GSK-J4 + Navitoclax; first compound 1.581 µM): 0.233
- relative viability (GSK-J4 + Navitoclax; first compound 5 µM): 0.341
- relative viability (GSK-J4 + Navitoclax; first compound 15.81 µM): 0.305
- relative viability (GSK-J4 + Navitoclax; first compound 50 µM): 0.179
